This assay has as its target T1, SIRT1 (Homo sapiens, UniProt Q96EB6).
T1 sequence (Q96EB6 1-747): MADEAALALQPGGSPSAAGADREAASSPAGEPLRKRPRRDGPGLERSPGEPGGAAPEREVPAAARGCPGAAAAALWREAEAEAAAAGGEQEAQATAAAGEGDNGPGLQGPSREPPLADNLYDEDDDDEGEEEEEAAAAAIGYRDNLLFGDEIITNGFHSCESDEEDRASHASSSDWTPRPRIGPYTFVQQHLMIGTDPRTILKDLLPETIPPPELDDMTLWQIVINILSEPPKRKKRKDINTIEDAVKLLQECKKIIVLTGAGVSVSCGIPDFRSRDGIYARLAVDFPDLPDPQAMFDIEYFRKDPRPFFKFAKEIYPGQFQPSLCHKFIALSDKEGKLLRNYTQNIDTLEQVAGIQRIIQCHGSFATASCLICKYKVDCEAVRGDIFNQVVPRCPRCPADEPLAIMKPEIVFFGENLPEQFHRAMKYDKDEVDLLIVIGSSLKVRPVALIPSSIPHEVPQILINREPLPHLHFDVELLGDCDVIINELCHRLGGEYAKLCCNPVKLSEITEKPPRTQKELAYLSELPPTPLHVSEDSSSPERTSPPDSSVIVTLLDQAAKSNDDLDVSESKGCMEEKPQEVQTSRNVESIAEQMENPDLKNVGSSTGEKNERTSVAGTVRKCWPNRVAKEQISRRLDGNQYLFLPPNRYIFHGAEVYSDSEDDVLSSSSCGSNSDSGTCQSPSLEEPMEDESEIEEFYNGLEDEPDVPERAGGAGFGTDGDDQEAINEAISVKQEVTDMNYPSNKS
As to the kind of experiment: Trp mass spectrometry assay of SIRT1 activation (Ac-R-H-K-K(Ac)-W-NH2 peptide). It is filed as biochemical. The note with it: Trp peptide 0.5 μM, 120 μM βNAD+, 10 nM SIRT1, 25 min at 25° C.; for Emax: 25 min, relative to control (100%), read-out: TRP MAX RESP (percent maximum fold activation). Summed up:
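N-terminal His-tagged human SIRT1, expressed in BL21(DE3) and purified, was incubated 25 min with an acetylated Trp peptide and NAD plus test compound at varying concentrations, then quenched with formic acid. OAADPR or deacetylated peptide was quantified by mass spectrometry versus compound-free control; EC1.5 is the concentration giving 50% activity increase, with percent maximum activation.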

On to `O=C(NC1CCC1)c1ccc2c(n1)N(C(=O)Nc1cnccn1)[C@H]1CCN2C1` [Example 206, (4S)—N7-cyclobutyl-N5-(pyrazin-2-yl)-3,4-dihydro-1,4-methanopyrido[2,3-b][1,4]diazepine-5,7(2H)-dicarboxamide], for which the Emax was over 150% and the “TRP Activity (EC1.5, concentration of test compound that results in 150% activation of SIRT1)” value is given as “B (EC1.5 1-25 μM)”.

In the case of `C[C@H](NC(=O)c1ccc2c(n1)N(C(=O)Nc1ccccn1)[C@H]1CCN2C1)C(F)(F)F` [Example 207, (4S)—N5-(pyridin-2-yl)-N7-((S)-1,1,1-trifluoropropan-2-yl)-3,4-dihydro-1,4-methanopyrido[2,3-b][1,4]diazepine-5,7(2H)-dicarboxamide], the Emax is over 150% and the “TRP Activity (EC1.5, concentration of test compound that results in 150% activation of SIRT1)” value is reported as “B (EC1.5 1-25 μM)”.

With `O=C(NC[C@@H]1CCCO1)c1ccc2c(n1)N(C(=O)Nc1ccccn1)[C@H]1CCN2C1` [Example 208, (4S)—N5-(pyridin-2-yl)-N7-(((S)-tetrahydrofuran-2-yl)methyl)-3,4-dihydro-1,4-methanopyrido[2,3-b][1,4]diazepine-5,7(2H)-dicarboxamide], the Emax was over 150% and the “TRP Activity (EC1.5, concentration of test compound that results in 150% activation of SIRT1)” value is reported as “B (EC1.5 1-25 μM)”.

In the case of `CC(C)(CCO)NC(=O)c1ccc2c(n1)N(C(=O)Nc1ccccn1)[C@H]1CCN2C1` [Example 209, (4S)—N7-(4-hydroxy-2-methylbutan-2-yl)-N5-(pyridin-2-yl)-3,4-dihydro-1,4-methanopyrido[2,3-b][1, 4] diazepine-5, 7(2H)-dicarboxamide], the Emax was over 150% and the “TRP Activity (EC1.5, concentration of test compound that results in 150% activation of SIRT1)” value is “B (EC1.5 1-25 μM)”.

Turning to `C[C@H](O)CNC(=O)c1ccc2c(n1)N(C(=O)Nc1ccccn1)[C@H]1CCN2C1` [Example 211, (4S)—N7-((S)-2-hydroxypropyl)-N5-(pyridin-2-yl)-3,4-dihydro-1,4-methanopyrido[2,3-b][1,4]diazepine-5,7(2H)-dicarboxamide], the Emax is over 150% and the “TRP Activity (EC1.5, concentration of test compound that results in 150% activation of SIRT1)” value was “B (EC1.5 1-25 μM)”.

Consider `CNC(=O)c1ccc2c(n1)N(C(=O)Nc1ccccn1)[C@H]1CCN2C1` [Example 212, (4S)—N7-methyl-N5-(pyridin-2-yl)-3,4-dihydro-1,4-methanopyrido[2,3-b][1,4]diazepine-5,7(2H)-dicarboxamide], for which the Emax is over 150% and the “TRP Activity (EC1.5, concentration of test compound that results in 150% activation of SIRT1)” value is “B (EC1.5 1-25 μM)”.

With `O=C(O)c1ccc(NC(=O)N2c3nc(C(=O)NCC(F)(F)F)ccc3N3CC[C@H]2C3)nc1` [Example 213, 6-((4S)-7-((2,2,2-trifluoroethyl)carbamoyl)-2,3,4,5-tetrahydro-1,4-methanopyrido[2,3-b][1,4]diazepine-5-carboxamido)nicotinic acid], the Emax was over 150% and the “TRP Activity (EC1.5, concentration of test compound that results in 150% activation of SIRT1)” value is given as “B (EC1.5 1-25 μM)”.

For the compound `Cc1ccc(NC(=O)N2c3nc(C(=O)NC4CC4)ccc3N3CC[C@H]2C3)nc1` [Example 215, (4S)—N7-cyclopropyl-N5-(5-methylpyridin-2-yl)-3,4-dihydro-1,4-methanopyrido[2,3-b][1,4]diazepine-5,7(2H)-dicarboxamide], the Emax was over 150% and the “TRP Activity (EC1.5, concentration of test compound that results in 150% activation of SIRT1)” value is given as “B (EC1.5 1-25 μM)”.

As for `Cn1cccc(NC(=O)N2c3nc(C(=O)NC4CC4)ccc3N3CC[C@H]2C3)c1=O` [Example 216, (4S)—N7-cyclopropyl-N5-(1-methyl-2-oxo-1,2-dihydropyridin-3-yl)-3,4-dihydro-1,4-methanopyrido[2,3-b][1,4]diazepine-5,7(2H)-dicarboxamide], the Emax is over 150% and the “TRP Activity (EC1.5, concentration of test compound that results in 150% activation of SIRT1)” value is reported as “B (EC1.5 1-25 μM)”.

Consider `C[C@@H](NC(=O)c1ccc2c(n1)N(C(=O)NCC(=O)N(C)C)[C@H]1CCN2C1)C(F)(F)F` [Example 217, (4S)—N5-(2-(dimethylamino)-2-oxoethyl)-N7-((R)-1,1,1-trifluoropropan-2-yl)-3,4-dihydro-1,4-methanopyrido[2,3-b][1,4]diazepine-5,7(2H)-dicarboxamide], for which the Emax is over 150% and the “TRP Activity (EC1.5, concentration of test compound that results in 150% activation of SIRT1)” value was “B (EC1.5 1-25 μM)”.

In the case of `O=C(NCCCO)c1ccc2c(n1)N(C(=O)Nc1ccccn1)[C@H]1CCN2C1` [Example 218, (4S)—N7-(3-hydroxypropyl)-N5-(pyridin-2-yl)-3,4-dihydro-1,4-methanopyrido[2,3-b][1,4]diazepine-5,7(2H)-dicarboxamide], the Emax is over 150% and the “TRP Activity (EC1.5, concentration of test compound that results in 150% activation of SIRT1)” value is on record as “B (EC1.5 1-25 μM)”.

On to `O=C(NCC1CC1)c1ccc2c(n1)N(C(=O)Nc1ccncn1)[C@H]1CCN2C1` [Example 219, (4S)—N7-(cyclopropylmethyl)-N5-(pyrimidin-4-yl)-3,4-dihydro-1,4-methanopyrido[2,3-b][1,4]diazepine-5,7(2H)-dicarboxamide], for which the Emax was over 150% and the “TRP Activity (EC1.5, concentration of test compound that results in 150% activation of SIRT1)” value was “B (EC1.5 1-25 μM)”.

Turning to `Cn1ncc2c(NC(=O)N3c4nc(C(=O)NCC(F)(F)F)ccc4N4CC[C@H]3C4)cccc21` [Example 220, (4S)—N5-(1-methyl-1H-indazol-4-yl)-N7-(2,2,2-trifluoroethyl)-3,4-dihydro-1,4-methanopyrido[2,3-b][1,4]diazepine-5,7(2H)-dicarboxamide], the Emax was over 150% and the “TRP Activity (EC1.5, concentration of test compound that results in 150% activation of SIRT1)” value is “B (EC1.5 1-25 μM)”.

Consider `O=C(NC1CC1)c1ccc2c(n1)N(C(=O)Nc1cnccn1)[C@H]1CCN2C1` [Example 222, (4S)—N7-cyclopropyl-N5-(pyrazin-2-yl)-3,4-dihydro-1,4-methanopyrido[2,3-b][1,4]diazepine-5,7(2H)-dicarboxamide], for which the Emax is over 150% and the “TRP Activity (EC1.5, concentration of test compound that results in 150% activation of SIRT1)” value is on record as “B (EC1.5 1-25 μM)”.

For the compound `O=C(N[C@@H](CO)C(F)(F)F)c1ccc2c(n1)N(C(=O)Nc1cccnc1)[C@H]1CCN2C1` [Example 224, (4S)—N5-(pyridin-3-yl)-N7-((S)-1,1,1-trifluoro-3-hydroxypropan-2-yl)-3,4-dihydro-1,4-methanopyrido[2,3-b][1,4]diazepine-5,7(2H)-dicarboxamide], the Emax is over 150% and the “TRP Activity (EC1.5, concentration of test compound that results in 150% activation of SIRT1)” value is reported as “B (EC1.5 1-25 μM)”.

On to `C[C@@H](NC(=O)c1ccc2c(n1)N(C(=O)Nc1cc(C(=O)O)ccn1)[C@H]1CCN2C1)C(F)(F)F` [Example 225, 2-((4S)-7-(((R)-1,1,1-trifluoropropan-2-yl)carbamoyl)-2,3,4,5-tetrahydro-1,4-methanopyrido[2,3-b][1,4]diazepine-5-carboxamido)isonicotinic acid], for which the Emax was over 150% and the “TRP Activity (EC1.5, concentration of test compound that results in 150% activation of SIRT1)” value is listed as “B (EC1.5 1-25 μM)”.

Regarding `O=C(NCc1cccnc1)c1ccc2c(n1)N(C(=O)Nc1cc(OC[C@H](O)CO)ccn1)[C@H]1CCN2C1` [Example 226, (4S)—N5-(4-((R)-2,3-dihydroxypropoxy)pyridin-2-yl)-N7-(pyridin-3-ylmethyl)-3,4-dihydro-1,4-methanopyrido[2,3-b][1,4]diazepine-5,7(2H)-dicarboxamide], the Emax was over 150% and the “TRP Activity (EC1.5, concentration of test compound that results in 150% activation of SIRT1)” value is given as “B (EC1.5 1-25 μM)”.

For `CN(C)CCOc1ccnc(NC(=O)N2c3nc(C(=O)NCC(F)(F)F)ccc3N3CC[C@H]2C3)c1` [Example 227, (4S)—N5-(4-(2-(dimethylamino)ethoxy)pyridin-2-yl)-N7-(2,2,2-trifluoroethyl)-3,4-dihydro-1,4-methanopyrido[2,3-b][1,4]diazepine-5,7(2H)-dicarboxamide], the Emax was over 150% and the “TRP Activity (EC1.5, concentration of test compound that results in 150% activation of SIRT1)” value is on record as “B (EC1.5 1-25 μM)”.

As for `CONC(=O)c1ccc2c(n1)N(C(=O)Nc1ccccn1)[C@H]1CCN2C1` [Example 228, (4S)—N7-methoxy-N5-(pyridin-2-yl)-3,4-dihydro-1,4-methanopyrido[2,3-b][1,4]diazepine-5,7(2H)-dicarboxamide], the Emax is over 150% and the “TRP Activity (EC1.5, concentration of test compound that results in 150% activation of SIRT1)” value is on record as “B (EC1.5 1-25 μM)”.

Turning to `O=C(NC1CC1)c1ccc2c(n1)N(C(=O)Nc1cccnn1)[C@H]1CCN2C1` [Example 229, (4S)—N7-cyclopropyl-N5-(pyridazin-3-yl)-3,4-dihydro-1,4-methanopyrido[2,3-b][1,4]diazepine-5,7(2H)-dicarboxamide], the Emax is over 150% and the “TRP Activity (EC1.5, concentration of test compound that results in 150% activation of SIRT1)” value is on record as “B (EC1.5 1-25 μM)”.

Values taken from US10072011B2, “Substituted bridged urea analogs as sirtuin modulators” (GlaxoSmithKline Intellectual Property (No.2) Limited, priority 2014, dated 2018).
